In brackets after ≈: the same amount, converted by molar mass. Entries after “also recorded” stand apart in the source; their conditions may differ. Read-outs that look alike come from different tables or passages of the source.
What was measured:
[1] = test system: Cutibacterium acnes (DMST 14916); test: MIC and MBC by modified broth microdilution; format: cell-based; conditions: C. acnes
Experimental: (§1) Microorganisms that cause skin infection, such as Staphylococcus aureus (ATTC 25923), Staphylococcus epidermidis (TISTR 517), Cutibacterium acnes (DMST 14916) and methicillin-resistant Staphylococcus aureus (DMST20654), were selected for this study. The isolated compounds were determined for minimum inhibitory concentration (MIC) in a 96-well plate by modified broth microdilution method and minimum bactericidal concentration (MBC). Oxacillin was used as positive controls for S. aureus, S. epidermidis and C. acnes, while vancomycin was used for MRSA.

[2] = test system: Staphylococcus aureus (ATTC 25923); test: MIC and MBC by modified broth microdilution; format: cell-based; conditions: S. aureus; for MBC / MIC: Staphylococcus aureus
Experimental: as §1

[3] = test system: Staphylococcus epidermidis (TISTR 517); test: MIC and MBC by modified broth microdilution; format: cell-based; conditions: S. epidermidis; for MBC / MIC: Staphylococcus epidermidis, TISTR517
Experimental: as §1

[4] = test system: methicillin-resistant Staphylococcus aureus (DMST20654); test: MIC and MBC by modified broth microdilution; format: cell-based; conditions: MRSA; for MBC / MIC: Staphylococcus aureus
Experimental: as §1

tyrosinase enzyme = test: Enzymatic antityrosinase activity, Dopachrom method with L-DOPA; format: biochemical, mushroom; conditions: for IC50 on tyrosinase inhibitory activity: L-DOPA substrate, pH 6.8, 25 °C; for IC50 Values: Experiment of Table 4, reference for the correlation, in µg/mL
Experimental: The tyrosinase activity was measured by the Dopachrom method using L-DOPA as a substrate. Briefly, 140 μL phosphate buffer (pH 6.8), 20 μL sample solution, and 20 μL tyrosinase solution (203.3 unit/mL) were mixed at 25 °C for 10 min, after which 20 μL of 0.85 mM L-Dopa was added. The optical density (OD) was measured at 492 nm. After incubation at 25 °C for 20 min, the optical density was measured again.

B16-F1 melanoma cells = test: Melanin content; format: cell-based, murine; conditions: 50 µg/mL
Experimental: (§2) The murine B16-F1 melanoma cells (CLS-400122, CLS Cell Lines Service GmbH, Germany) were cultured in Dulbecco’s modified Eagle’s medium, which was supplemented with 10% fetal bovine serum in a humidified incubator at 37 C with 5% CO2. When cells reached 70–80% confluence cell viability, cellular tyrosinase activity and melanin content were measured. The B16-F1 cells were seeded at a density of 3 × 10^5 cells/well on 12-well plates and cultured for 12 h. Cells were treated with test samples and control (0.5% DMSO). After 48 h of incubation, cells were lysed with RIPA and centrifuged at 14,000 rpm for 20 min (4 °C) to separate the cell pellet and supernatant. The supernatant was collected and the protein content was determined by the Bradford method using bovine serum albumin as standard. The supernatant was incubated and 2 mg/mL L-Dopa was added to a 96-well plate at 25 °C for 1 h. After that, optical densities were measured at 492 nm. Then, tyrosinase inhibition was calculated, while the cell pellet was dissolved with 1 M NaOH and incubated at 55 °C for 1 h. Melanin concentration was calculated by comparing the absorbance at 475 nm using a standard curve of synthetic melanin.

[5] = test system: MITF, tyrosinase, TRP1 and TRP2 in B16-F1 cells; test: Western blot of melanogenic protein expression; format: cell-based, murine; conditions: 25 and 50 µg/mL
Excerpt: The protein content of the supernatant was quantified by the Bradford method using bovine serum albumin as standard. Equal amounts of protein were separated by 40% acrylamide/Bissolution (InvitrogenThermoFisher Scientific, Waltham, MA, USA) and transferred onto nitrocellulose membranes (BIO-RAD Laboratories, Feldkirchen, Germany). The membranes were probed with antibodies against microphthalmia-associated transcription factor; MITF (ThermoFisher Scientific #MA5-16214, Waltham, MA, USA), tyrosinase (ThermoFisher Scientific #35-6000, Waltham, MA, USA), tyrosinase-related protein 1; TRP1 (ThermoFisher Scientific #OSR00085W, Waltham, MA, USA) and tyrosinase-related protein 2; TRP2 (ThermoFisher Scientific #PA5-36485, Waltham, MA, USA). The proteins were detected using an enhanced chemiluminescence kit (BIO-RAD Laboratories, Hercules, CA, USA). Quantitative analysis was performed using a digital imager (UPV UVP, VisionWork^T LS, Image Acquisition & Analysis Software). The method applied was modified from Western Blot analysis for UGT1A family by the co-author, Asst. Prof. Dr. Wandee Udomuksorn, Pharmacology Program, Division of Health and Applied Science, Faculty of Science, Prince of Songkla University, Thailand., Department of Clinical Pharmacology, Flinders Medical Center.

[6] = test system: tyrosinase in B16-F1 melanoma cells; test: Intracellular antityrosinase activity; format: cell-based, murine; conditions: 50 µg/mL, 48 h
Experimental: as §2

tyrosinase = test system: tyrosinase; design: method as in PMID 27598113; conditions: cited from earlier work
[7] = listed as 3, 4, 3′, 5′-tetrahydroxybibenzyl

MIC [1] [µg/mL] | MIC [2] [µg/mL] | MIC [3] [µg/mL] | MIC ([4]; read-out: MIC) [µg/mL] | IC50 on tyrosinase inhibitory activity (tyrosinase enzyme) [µg/mL] | IC50 Values (tyrosinase enzyme) | Compound | MBC [1] [µg/mL] | MBC [2] [µg/mL] | MBC [3] [µg/mL] | MBC ([4]; read-out: MBC) [µg/mL] | Inhibitory effect (in words) [2] | Inhibitory effect (in words) [3] | Inhibitory effect (in words) [4] | Intracellular antityrosinase activity [6] | Melanin content (B16-F1 melanoma cells) | Melanogenic protein expression [5] | other results
> 256 | 128 (≈ 520 µM) | 128 (≈ 520 µM) | 64 (≈ 260 µM) | 35.65 ± 0.98 (≈ 145 µM) | – | Oc1cc(O)cc(CCc2ccc(O)c(O)c2)c1 [Compound 4, 3,4, 3′, 5′-tetrahydroxybibenzyl] | > 256 | 256 (≈ 1040 µM) | > 256 | 256 (≈ 1040 µM) | – | – | – | – | – | – | Melanin content (B16-F1 melanoma cells; [7]): increased the melanin content; also recorded: increase melanin content; Melanogenic protein expression [5, 7]: increasing microphthalmia-associated transcription factor (MITF) and tyrosinase (TYR); also recorded: upregulating the melanogenic protein expression
– | – | – | – | – | – | CN[C@H](CC(C)C)C(=O)N[C@H]1C(=O)N[C@@H](CC(N)=O)C(=O)N[C@H]2C(=O)N[C@H]3C(=O)N[C@H](C(=O)N[C@H](C(=O)O)c4cc(O)cc(O)c4-c4cc3ccc4O)[C@H](O)c3ccc(c(Cl)c3)Oc3cc2cc(c3O[C@@H]2O[C@H](CO)[C@@H](O)[C@H](O)[C@H]2O[C@H]2C[C@](C)(N)[C@H](O)[C@H](C)O2)Oc2ccc(cc2Cl)[C@H]1O [Van, Vancomycin, reference compound] | – | – | – | – | – | – | – | – | – | – | MBC [4]: 0.5 µg/mL (≈ 0.345 µM); MIC [4]: 0.125 µg/mL (≈ 0.0863 µM)
128 (≈ 392 µM) | 16 (≈ 49 µM) | 16 (≈ 49 µM) | 16 (≈ 49 µM) | 109.64 ± 0.89 (≈ 336 µM) | 109.64 | CC(=CCc1c(O)cc(-c2cc3ccc(O)cc3o2)cc1O)CO [Compound 1, ω-Hydroxymoracin C] | > 256 | 32 (≈ 98.1 µM) | 32 (≈ 98.1 µM) | > 256 | stronger inhibitory effect | stronger inhibitory effect | stronger inhibitory effect | exhibited antityrosinase activity | could decrease the melanin content | – | Melanogenic protein expression ([5]; listed as ω-Hydroxymoracin C): downregulated the melanogenic protein expression; Melanogenic protein expression ([5]; listed as ω-hydroxymoracin C): decreasing microphthalmia-associated transcription factor (MITF), tyrosinase (TYR), tyrosinase-related protein 1 (TRP1) and tyrosinase-related protein 2 (TRP2)
128 (≈ 412 µM) | 32 (≈ 103 µM) | 128 (≈ 412 µM) | 32 (≈ 103 µM) | 128.67 ± 1.21 (≈ 415 µM) | 128.67 | CC(C)=CCc1c(O)cc(-c2cc3ccc(O)cc3o2)cc1O [Compound 3, moracin C] | > 256 | 64 (≈ 206 µM) | > 256 | 64 (≈ 206 µM) | stronger inhibitory effect | stronger inhibitory effect | stronger inhibitory effect | exhibited antityrosinase activity | could decrease the melanin content | decreasing microphthalmia-associated transcription factor (MITF), tyrosinase (TYR), tyrosinase-related protein 1 (TRP1) and tyrosinase-related protein 2 (TRP2); also recorded: downregulated the melanogenic protein expression | –
> 256 | > 256 | 64 (≈ 262 µM) | 128 (≈ 524 µM) | 149.73 ± 0.86 (≈ 613 µM) | 149.73 | Oc1cc(O)cc(/C=C/c2ccc(O)c(O)c2)c1 [Compound 5, piceatannol] | > 256 | > 256 | 128 (≈ 524 µM) | > 256 | – | – | – | – | increased the melanin content; also recorded: increase melanin content | increasing microphthalmia-associated transcription factor (MITF) and tyrosinase (TYR); also recorded: upregulating the melanogenic protein expression | –
– | – | – | – | – | – | CC1(C)C=Cc2c(O)cc(-c3cc4ccc(O)cc4o3)cc2O1 [moracin D] | – | – | – | – | – | – | – | – | – | – | Antityrosinase activity (in words) (tyrosinase): did not display antityrosinase activity
> 256 | 256 (≈ 1060 µM) | 64 (≈ 264 µM) | 64 (≈ 264 µM) | 47.34 ± 0.78 (≈ 195 µM) | 47.34 | Oc1cc(O)cc(-c2cc3ccc(O)cc3o2)c1 [Compound 2, moracin M] | > 256 | > 256 | > 256 | > 256 | weak inhibitory effect | weak inhibitory effect | weak inhibitory effect | exhibited antityrosinase activity | could decrease the melanin content | decreasing microphthalmia-associated transcription factor (MITF), tyrosinase (TYR), tyrosinase-related protein 1 (TRP1) and tyrosinase-related protein 2 (TRP2); also recorded: downregulated the melanogenic protein expression | –

Compound | MIC [1] [µg/mL] | MIC [2] [µg/mL] | MIC [3] [µg/mL] | MIC ([4]; read-out: MIC) [µg/mL] | IC50 on tyrosinase inhibitory activity (tyrosinase enzyme) [µg/mL] | IC50 Values (tyrosinase enzyme) | MBC [1] [µg/mL] | MBC [2] [µg/mL] | MBC [3] [µg/mL] | MBC ([4]; read-out: MBC) [µg/mL] | Inhibitory effect (in words) [2] | Inhibitory effect (in words) [3] | Inhibitory effect (in words) [4] | Intracellular antityrosinase activity [6] | Melanin content (B16-F1 melanoma cells) | Melanogenic protein expression [5] | other results
Cc1onc(-c2ccccc2)c1C(=O)N[C@@H]1C(=O)N2[C@@H]1SC(C)(C)[C@@H]2C(=O)O [Oxa, Oxacillin, reference compound] | 0.5 (≈ 1.25 µM) | 0.125 (≈ 0.311 µM) | 0.5 (≈ 1.25 µM) | – | – | – | 0.5 (≈ 1.25 µM) | 0.125 (≈ 0.311 µM) | 0.5 (≈ 1.25 µM) | – | – | – | – | – | – | – | –
